Results reported in US8309056B2, “Method for determination of oxidative stress” (Keio University, priority 2006, dated 2012).

Key:
[1] = system: glutathione biosynthesis pathway in the liver; test: Metabolites in liver of agent-administered mice vs control mice, measured by CE-TOFMS; format: in vivo
Description: Male mice fasted overnight were anesthetized by intraperitoneal injection of pentobarbital sodium (60 mg per Kg body weight). […] The liver (about 300 mg) harvested from mice was immediately plunged into 1 ml of methanol containing internal standards and homogenized to inactivate enzymes and stop increase in metabolism Then, 500 μl of pure water was added and 300 μl of the solution was collected. 200 μl of chloroform was added to the solution, which was then thoroughly mixed. The solution was centrifuged at 15000 rpm at 4° C. for 15 minutes. After left standing, the separated 300 μl-water-methanol phase was centrifugally filtered through an ultrafiltration filter (5 kDa cutoff) to remove proteins. The filtrate was lyophilized and 50 μl of […]® ultrapure water was added thereto prior to CE-MS (CE-TOFMS) analysis. Metabolites having a mass of 1000 or less were comprehensively measured using CE-TOFMS under measuring conditions for cationic metabolites and anionic metabolites. As a capillary, a fused silica capillary having an inner diameter of 50 μm, an outer diameter of 350 μm, and a total length of 100 cm was used. As a buffer, 1 M formic acid (pH is about 1.8) was used. Measurement was performed with an applied voltage of +30 kV and a capillary temperature of 20° C. A sample was injected at 50 mbar for 3 seconds using the pressure method. In TOFMS, the positive ion mode was employed and the ionization, fragmentor, skimmer, and Oct RFV voltages were set at 4 kV, 75 V, 50 V, and 125 V, respectively. Nitrogen was used as a drying gas, which was set at a temperature of 300° C. and a pressure of 10 psig. Methanol solution (50%) was used as a sheath liquid. To this solution, reserpine (m/z 609.2807) was added at 0.5 μM for mass calibration and the solution was delivered at 10μ/min. All the obtained data were automatically calibrated using the mass of reserpine (m/z 609.2807) and methanol adduct ion (m/z 83.0703). As a capillary, SMILE(+) capillary having an inner diameter of 50 μm, an outer diameter of 350 μm, and a total length of 100 cm was used. As a buffer, 50 mM ammonium acetate (pH 8.5) was used. Measurement was performed with an applied voltage of -30 kV and a capillary temperature of 20° C. A sample was injected at 50 mbar for 30 seconds using the pressure method. In TOFMS, the negative ion mode was employed and the ionization, fragmentor, skimmer, and Oct RFV voltage were set at 3.5 kV, 100 V, 50 V, and 200 V, respectively. Nitrogen was used as a drying gas, which was set at a temperature of 300° C. and a pressure of 10 psig. Ammonium acetate (5 mM) in 50% methanol solution was used as a sheath liquid. To this solution, 20 μM PIPES and 1 μM reserpine (m/z 609.2807) was added for mass calibration and was delivered at 10μ/min. All the obtained data were automatically calibrated using the mass of reserpine (m/z 609.2807), monovalent PIPES (m/z 301.0534), and divalent PIPES (m/z 150.0230). […] The extracts were comprehensively and quantitatively analyzed with a capillary electrophoresis-mass spectrometer (CE-MS) or the like. […] Ophthalmic acid preparation was obtained and compared with the unknown substance.

serum metabolites = test: Metabolites in serum of AAP-administered mice vs control mice, measured by CE-TOFMS; format: in vivo
Description: Male mice fasted overnight were anesthetized by intraperitoneal injection of pentobarbital sodium (60 mg per Kg body weight). […] Metabolites having a mass of 1000 or less were comprehensively measured using CE-TOFMS under measuring conditions for cationic metabolites and anionic metabolites. As a capillary, a fused silica capillary having an inner diameter of 50 μm, an outer diameter of 350 μm, and a total length of 100 cm was used. As a buffer, 1 M formic acid (pH is about 1.8) was used. Measurement was performed with an applied voltage of +30 kV and a capillary temperature of 20° C. A sample was injected at 50 mbar for 3 seconds using the pressure method. In TOFMS, the positive ion mode was employed and the ionization, fragmentor, skimmer, and Oct RFV voltages were set at 4 kV, 75 V, 50 V, and 125 V, respectively. Nitrogen was used as a drying gas, which was set at a temperature of 300° C. and a pressure of 10 psig. Methanol solution (50%) was used as a sheath liquid. To this solution, reserpine (m/z 609.2807) was added at 0.5 μM for mass calibration and the solution was delivered at 10μ/min. All the obtained data were automatically calibrated using the mass of reserpine (m/z 609.2807) and methanol adduct ion (m/z 83.0703). As a capillary, SMILE(+) capillary having an inner diameter of 50 μm, an outer diameter of 350 μm, and a total length of 100 cm was used. As a buffer, 50 mM ammonium acetate (pH 8.5) was used. Measurement was performed with an applied voltage of -30 kV and a capillary temperature of 20° C. A sample was injected at 50 mbar for 30 seconds using the pressure method. In TOFMS, the negative ion mode was employed and the ionization, fragmentor, skimmer, and Oct RFV voltage were set at 3.5 kV, 100 V, 50 V, and 200 V, respectively. Nitrogen was used as a drying gas, which was set at a temperature of 300° C. and a pressure of 10 psig. Ammonium acetate (5 mM) in 50% methanol solution was used as a sheath liquid. To this solution, 20 μM PIPES and 1 μM reserpine (m/z 609.2807) was added for mass calibration and was delivered at 10μ/min. […]

[2] = 2 hours after administration, vs control mice
[3] = at 1 and 2 hours after administration (time course)
[4] = time course 1-24 hours after administration

Question: How did the GSH in liver [1, 2] turn out when `CC(=O)Nc1ccc(O)cc1` [AAP, Acetaminophen] was run?
Answer: Its GSH in liver is “Dramatically decreased”.

Question: And the “all the substances in the glutathione biosynthesis pathway in the liver” value [1, 2]?
Answer: The value was “decrease”.

Question: And the “ophthalmic acid in liver” value [1, 2]?
Answer: The value was “increase”.

Question: What about the “oxidized glutathione (GSSG) in liver” value [1, 2] of the same molecule?
Answer: Its value is “Dramatically decreased”.

Question: What about the “γ-Glu-2-aminobutyric acid (γ-Glu-2AB) in liver” value [1, 2] of the same molecule?
Answer: Its value is “increase”.

Question: And the GSH in liver [1, 3]?
Answer: The GSH in liver was “rapidly decreased”.

Question: What about the “ophthalmic acid in liver” value [1, 3] of the same molecule?
Answer: Its value is “dramatically increased”.

Question: And the GSSH in liver [1, 4]?
Answer: Its GSSH in liver is “a behavior similar to that of GSH in liver”.

Question: What about the “ophthalmic acid in serum” value (serum metabolites; [3]) of the same molecule?
Answer: Its value is “dramatically increased”.

Question: What about the GSH in serum (serum metabolites; [4]) of the same molecule?
Answer: The GSH in serum was “not detected”.

Question: And the GSSH in serum (serum metabolites; [4])?
Answer: The GSSH in serum was “a behavior similar to that of GSH in liver”.

Question: With `CCCCS(=N)(=O)CCC(N)C(=O)O` (stereo not drawn) [BSO, buthionine sulfoximine] as the molecule, how does the GSH in liver [1, 2] read?
Answer: The GSH in liver was “remarkably decreased”.

Question: And the “ophthalmic acid in liver” value [1, 2]?
Answer: The value was “remarkably decreased”.

Question: What about the “γ-Glu-2-aminobutyric acid (γ-Glu-2AB) in liver” value [1, 2] of the same molecule?
Answer: The value was “remarkably decreased”.

Question: What about the γ-Glu-Cys in liver [1, 2] of the same molecule?
Answer: Its γ-Glu-Cys in liver is “remarkably decreased”.
